The text below walks through data of patent US9890168B2, “2,4-disubstituted 7H-pyrrolo[2,3-d]pyrimidine derivative, preparation method and medicinal use thereof” (Shanghai Haiyan Pharmaceutical Technology Co., Ltd., priority 2014, dated 2018).

The structures appear in SMILES notation. Where a name gives a salt, the structure may show the parent alone.

One assay relates to H1975 cells. The assay can be described thus: Cell inhibitory activity by MTT assay, H1975 cells. Type of assay: cell-based. The note with it: for IC50: cell growth, MTT assay, 72 hours; for Selective inhibitory activity against cell growth [IC50 (A431 cell)/IC50 (H1975 cell)]: ratio of MTT IC50 values. For orientation: Tetrazolium dyes change colour on reduction, which living cells bring about.

For a further assay, the system named is NIH3T3 cells. The assay can be described thus: Toxicity test on NIH3T3 cells by MTT assay. Type of assay: cell-based.
Another assay addresses wild-type EGFR kinase (Homo sapiens (Human), UniProt P00533). Briefly: z'-lyte assay of inhibition activity on wild-type EGFR kinase. Type of assay: biochemical. The following applies: 10 μM ATP, 0.8 ng/μL kinase, read-out: EGFR WT (IC50/μM).
Assay [1] has as its target EGFR phosphorylation in H1975 (EGFR T790M mutant) cells (Homo sapiens (Human), UniProt P00533, L858R/T790M). Briefly: Inhibition of EGFR phosphorylation in H1975 cells (ELISA). In kind it is cell-based. The note with it: for IC50: EGFR phosphorylation, ELISA, 1 h compound treatment, read-out: H1975 cell (IC50/μM); for Selective inhibitory activity against targets at the cell level [IC50 (A431 cell)/IC50 (H1975 cell)]: ratio of ELISA IC50 values. For orientation: ELISA stands for enzyme-linked immunosorbent assay.
Protocol: (§1) The reagents used in the following methods, the preparation methods of solutions, the cell treatment and the preparation steps of lysate were carried out according to the instructions of R&D DYC3570, R&D DYC1095E and R&D DYC1095BE.
(2) The compounds to be tested were diluted in accordance with the drug dilution method in the MTT assay. 10 μL of the diluted compound solution or diluted DMSO was added to the corresponding wells of the cell culture plate, and the final concentration of DMSO was 0.5% (V/V). The plate was cultured at 37° C. in 5% (v/v) CO2 for 1 h. The cell culture system treated with DMSO alone was used as cell control.
(3) The medium was removed and then 100 μL of cell lysis solution was added. The plate was sealed and placed in a refrigerator at −80° C. overnight. The cell lysis buffer was used as blank control.
The assay was conducted according to the instructions given in R&D DYC1095E or R&D DYC1095BE.
(5) 40 μL of cell lysis buffer and 60 μL of cell lysis solution were added and the plate was incubated at 25° C. with shaking for 2 hours.
(§2) (7) The detection antibody was diluted with the detection antibody diluent in the proportion specified in the instructions of the kit. 100 μL of the diluent antibody was added to each well and the plate was incubated at 25° C. with shaking in dark for 1 h.
(9) A reagent and B reagent in the TMB substrate (R&D DY999) were mixed in 1:1. 100 μL of the mixture was added to each well and incubated in dark at 25° C. with shaking for 20 min.
(11) The plate was read with a microplate reader (Thermo Multiskan K3). OD 450 values and OD570 values of the cell control, blank control, and drug treatment wells were measured. ODcell, ODblank and ODdrug treatment were obtained by subtracting the corresponding OD570 value from the OD 450 value of the same well.
2.3 Data Analysis Inhibition rate (%)=100%×(ODcell−ODdrug treatment)/(ODcell−ODblank)

The target of assay [2] is EGFR phosphorylation in A431 (EGFR wild-type) cells (Homo sapiens (Human), UniProt P00533). Briefly: Inhibition of EGFR phosphorylation in A431 cells (ELISA). Type of assay: cell-based. The note with it: 1 h compound treatment, EGF stimulation, read-out: A431 cell (IC50/μM).
Chain of EGFR phosphorylation in A431 (EGFR wild-type) cells (P00533 25-1210): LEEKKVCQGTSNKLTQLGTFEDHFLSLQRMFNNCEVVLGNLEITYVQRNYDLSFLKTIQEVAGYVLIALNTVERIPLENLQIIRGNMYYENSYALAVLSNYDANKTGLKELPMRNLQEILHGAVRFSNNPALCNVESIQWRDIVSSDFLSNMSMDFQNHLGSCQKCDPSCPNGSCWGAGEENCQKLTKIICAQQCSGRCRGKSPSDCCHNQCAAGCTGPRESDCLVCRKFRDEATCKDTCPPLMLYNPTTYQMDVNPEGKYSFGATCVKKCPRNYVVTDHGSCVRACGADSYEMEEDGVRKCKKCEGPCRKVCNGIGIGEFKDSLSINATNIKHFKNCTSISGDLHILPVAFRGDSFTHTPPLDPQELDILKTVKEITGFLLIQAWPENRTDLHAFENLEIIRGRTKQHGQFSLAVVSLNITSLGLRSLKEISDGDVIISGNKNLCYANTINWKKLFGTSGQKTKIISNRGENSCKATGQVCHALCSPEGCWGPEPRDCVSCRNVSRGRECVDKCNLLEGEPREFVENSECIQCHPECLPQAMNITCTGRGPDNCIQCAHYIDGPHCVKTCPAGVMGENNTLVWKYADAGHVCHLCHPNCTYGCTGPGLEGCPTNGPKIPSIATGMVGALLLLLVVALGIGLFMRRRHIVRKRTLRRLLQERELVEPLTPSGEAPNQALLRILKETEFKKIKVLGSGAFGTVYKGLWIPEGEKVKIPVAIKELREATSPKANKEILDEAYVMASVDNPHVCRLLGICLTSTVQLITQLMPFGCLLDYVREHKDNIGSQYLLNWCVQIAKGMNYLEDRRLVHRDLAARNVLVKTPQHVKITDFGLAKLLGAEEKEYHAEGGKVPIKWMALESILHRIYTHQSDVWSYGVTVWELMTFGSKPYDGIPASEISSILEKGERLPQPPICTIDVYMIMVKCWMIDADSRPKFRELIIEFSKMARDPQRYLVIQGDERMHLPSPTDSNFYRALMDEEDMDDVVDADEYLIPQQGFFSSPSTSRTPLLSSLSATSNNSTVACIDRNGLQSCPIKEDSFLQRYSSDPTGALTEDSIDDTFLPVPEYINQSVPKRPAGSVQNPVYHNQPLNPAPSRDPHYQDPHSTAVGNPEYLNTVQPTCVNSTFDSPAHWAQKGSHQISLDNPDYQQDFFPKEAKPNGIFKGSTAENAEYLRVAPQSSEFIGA
Protocol: as §1
(2) The A431 cell culture medium was replaced with 90 μl of serum-free DMEM medium and the plate was cultured overnight.
(3) The compound to be tested was diluted according to the drug dilution method in MTT assay. 10 μL of the dilated compound solution or diluted DMSO was added to the corresponding wells of the cell culture plate, and the final concentration of DMSO was 0.5%. The plate was cultured at 37° C. in 5% CO2 for 1 hour. […] The cells without EGF and drugs were used as cell control, and the cells treated with EGF without drugs were used as EGF control.
(4) The medium was removed and then 100 μL, of the cell lysis solution was added. The plate was sealed and placed in a refrigerator at −80° C. overnight.
The assay was conducted according to the instructions given in R&D DYC3570E.
(5) 40 μL of cell lysis butler and 60 μL of cell lysis solution were added and the plate was incubated at 25° C. with shaking for 2 hours.
as §2
(9) A reagent and B reagent in TMB substrate (R&D DY999) were mixed in 1:1. 100 μL mixture was added to each well and incubated in dark at 25° C. with shaking tor 20 min.
(11) The plate was read with a microplate reader (Thermo Multiskan K3). OD 450 values and OD570 values of the cell control, blank control, and drug treatment wells were measured. ODEGF, ODdrug and ODcell were obtained by subtracting the corresponding OD570 value from the OD 450 value of the same well.
3.3 Data Analysis Inhibition rate (%)=100%×(ODEGF−ODdrug)/(ODEGF−ODcell)
Another assay deals with A431 cells. Briefly: Cell inhibitory activity by MTT assay, A431 cells. In kind it is cell-based. The following applies: 72 hours.
Assay [3] has as its system T790M mutant cell line H1975. The note with it: background statement; cited from earlier work.
The mark [4] stands for this setting: Homo sapiens, A-431, cell growth.

Chain of wild-type EGFR kinase (P00533 25-1210): as above
Chain of EGFR phosphorylation in H1975 (EGFR T790M mutant) cells (P00533 25-1210 T790M/L858R): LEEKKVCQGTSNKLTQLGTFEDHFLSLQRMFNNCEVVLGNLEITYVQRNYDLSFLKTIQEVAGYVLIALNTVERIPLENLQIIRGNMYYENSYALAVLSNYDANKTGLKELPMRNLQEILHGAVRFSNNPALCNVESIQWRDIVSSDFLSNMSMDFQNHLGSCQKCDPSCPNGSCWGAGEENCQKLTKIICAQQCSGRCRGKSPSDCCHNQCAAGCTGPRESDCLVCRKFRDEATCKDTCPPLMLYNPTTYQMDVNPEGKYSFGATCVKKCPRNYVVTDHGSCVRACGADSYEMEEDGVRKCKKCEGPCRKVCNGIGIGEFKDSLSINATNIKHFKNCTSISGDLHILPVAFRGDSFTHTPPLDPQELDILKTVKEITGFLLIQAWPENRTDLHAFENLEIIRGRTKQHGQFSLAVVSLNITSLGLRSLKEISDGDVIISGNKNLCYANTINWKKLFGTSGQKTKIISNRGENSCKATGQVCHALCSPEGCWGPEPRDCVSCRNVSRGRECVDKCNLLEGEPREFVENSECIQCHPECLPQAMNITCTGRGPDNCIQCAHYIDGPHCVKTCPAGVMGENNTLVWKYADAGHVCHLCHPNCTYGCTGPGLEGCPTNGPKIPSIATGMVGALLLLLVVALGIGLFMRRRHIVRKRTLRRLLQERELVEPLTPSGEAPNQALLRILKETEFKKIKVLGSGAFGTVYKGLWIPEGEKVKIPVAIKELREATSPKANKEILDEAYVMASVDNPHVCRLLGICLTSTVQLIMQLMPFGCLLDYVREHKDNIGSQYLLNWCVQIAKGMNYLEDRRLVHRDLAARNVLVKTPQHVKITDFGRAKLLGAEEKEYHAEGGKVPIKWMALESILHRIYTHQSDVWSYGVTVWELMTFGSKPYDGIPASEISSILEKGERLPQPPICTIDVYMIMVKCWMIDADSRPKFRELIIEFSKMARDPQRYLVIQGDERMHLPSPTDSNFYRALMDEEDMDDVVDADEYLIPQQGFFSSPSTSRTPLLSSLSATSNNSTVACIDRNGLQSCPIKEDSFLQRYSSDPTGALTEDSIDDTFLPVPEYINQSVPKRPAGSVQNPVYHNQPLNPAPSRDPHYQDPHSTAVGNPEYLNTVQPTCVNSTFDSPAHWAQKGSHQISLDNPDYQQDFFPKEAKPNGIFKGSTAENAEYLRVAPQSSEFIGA
Protocol for NIH3T3 cells: After the first wash, 1.5 mL of trypsin/EDTA was added to digest the adherent cells until the cells detached. Then 3.5 mL of the culture medium was added to terminate the digestion. The digested cell suspension was transferred to a 15 mL centrifuge tube and centrifuged at 1300 rpm for 3 minutes. The supernatant was discarded and the cells were resuspended in fresh medium. The cells were then counted and diluted to the following concentrations: 27,800 cells per milliliter of H1975 cells, 33,300 cells per milliliter of A431 cells and NIH3T3 cells.
After the drug was added, the cells were incubated in an incubator for 72 hours. 10 μL of 5 mg/ml MTT (Sigma, M5655) solution was added to each well. The 96-well plate was then incubated in a 37° C. and 5% CO2 incubator for 4 h.
The plate was then centrifuged at 2000 rpm for 5 min. After the supernatant was removed, 150 μl of DMSO was added to each well and the plate was shaken in a shaker until all crystal violet was dissolved.
Protocol for wild-type EGFR kinase: All reagents used in the following z′-lyte assay were purchased from Invitrogen.
The working concentrations of each component in 10 μL wild-type EGER kinase reaction system were: 10 μM ATP, 0.8 ng/μL wild-type EGFR kinase, 2 μM Tyr04 substrate (Invitrogen, PV3193). The concentration of DMSO after addition of the compound to be tested was 2 vol %.
10 mM drug stock solution was dissolved at room temperature and diluted to a final concentration of 4-0.002 μM with 8 vol % DMSO solution. […] Then 2.5 μl of ATP was added to initiate the reaction. Wherein, ATP was replaced by the reaction buffer in C1 well, no drug was added to C2 well, and the phosphorylated substrate was added to C3 well according to the instructions. The mixture was allowed to react at 25° C. in a shaker in dark for 60 min, 5 μL of Development Reagent B (invitrogen, diluted with TR-FRET dilution buffer) was added and allowed to react at room temperature in the shaker for 60 minutes.
The inhibition rate was calculated according to the following method (refer to the instructions of Invitronen, PV3193):
1. ER=Coumarin Emission (450 nm)/Fluorescein Emission (520 mn)
3. Inhibition ratio (IR)=(1−(phospholylation ratio of the test compound)/(phosphorylation ratio of C2))×100%
The half-inhibitory concentration IC50 was obtained through fitting calculation by using XLFIT 5.0 software (IDBS, UK).

On to `CN(C)C/C=C/C(=O)Nc1cc2c(Nc3ccc(F)c(Cl)c3)ncnc2cc1O[C@H]1CCOC1` [BIBW2992, reference compound], for which the IC50 was found to be 0.088 µM in the assay with H1975 cells (Homo sapiens, NCI-H1975) and 2.75 µM in the assay with NIH3T3 cells (Mus musculus, NIH3T3, 72 hours).
For `C=CC(=O)Nc1cc(Nc2nc(-c3cnn(C)c3)c3cc[nH]c3n2)c(OC)cc1N(C)CCN(C)C` [Compound 1, N-(2-((2-(dimethylamino)ethyl)(methyl)amino)-4-methoxy-5-(4(1-methyl-1H-pyrazol-4-yl)-7H-pyrrolo[2,3-d]pyrimidn-2-ylamino)phenyl)acrylamide], the IC50 at wild-type EGFR kinase was 0.393 µM; in assay [1], 0.112 µM; in assay [2], 3.67 µM; with H1975 cells (Homo sapiens, NCI-H1975), 0.043 µM; in the assay with A431 cells (setting [4]), 1.56 µM; with NIH3T3 cells (Mus musculus, NIH3T3, 72 hours) it was greater than 10 µM. In assay [1], the “Selective inhibitory activity against targets at the cell level [IC50 (A431 cell)/IC50 (H1975 cell)]” value stood at 32.7. In the assay on H1975 cells, the “Selective inhibitory activity against cell growth [IC50 (A431 cell)/IC50 (H1975 cell)]” value is on record as 36.3.
As to `C=CC(=O)Nc1cc(Nc2nc(N3CCOCC3)c3cc[nH]c3n2)c(OC)cc1N(C)CCN(C)C` [Compound 2, N-(2-((2-(dimethylamino)ethyl)(methyl)amino)-4-methoxy-5-(4-morpholino-7H-pyrrolo[2,3-d]pyrimidin-2-ylamino)phenyl)acrylamide], the IC50 is greater than 1 µM at wild-type EGFR kinase; 0.322 µM in assay [1]; greater than 10 µM in assay [2]; 0.143 µM in the assay with H1975 cells (Homo sapiens, NCI-H1975); 4.01 µM in the assay on A431 cells (setting [4]); greater than 10 µM in the assay on NIH3T3 cells (Mus musculus, NIH3T3, 72 hours). The “Selective inhibitory activity against targets at the cell level [IC50 (A431 cell)/IC50 (H1975 cell)]” value in assay [1] came to 31. Besides, in the assay with H1975 cells, the “Selective inhibitory activity against cell growth [IC50 (A431 cell)/IC50 (H1975 cell)]” value came out at 28.
On to `C=CC(=O)Nc1cc(Nc2nc(OC3CN(S(C)(=O)=O)C3)c3cc[nH]c3n2)c(OC)cc1N(C)CCN(C)C` [Compound 3, N-(2-((2-(dimethylamino)ethyl)(methyl)amino)-4-methoxy-5-(4-(1-(methylsulfonyl)azetidin-3-yloxy)-7H-pyrrolo[2,3-d]pyrimidin-2-ylamino)phenyl)acryl amide], for which the IC50 on wild-type EGFR kinase was 0.088 µM; in assay [1], 0.032 µM; in assay [2] it was 0.86 µM; in the assay on H1975 cells, 0.029 µM; in the assay with A431 cells (cell growth), 2.93 µM; in the assay on NIH3T3 cells (72 hours), greater than 10 µM. Further, the “Selective inhibitory activity against targets at the cell level [IC50 (A431 cell)/IC50 (H1975 cell)]” value in assay [1] is on record as 26.9. For the same molecule, the “Selective inhibitory activity against cell growth [IC50 (A431 cell)/IC50 (H1975 cell)]” value in the assay on H1975 cells is reported as 101.
For the molecule `C=CC(=O)Nc1cc(Nc2nc(-c3cnc4c(ccn4C)c3)c3cc[nH]c3n2)c(OC)cc1N(C)CCN(C)C` [Compound 4, N-(2-((2-(dimethylamino)ethyl)(methyl)amino)-4-methoxy-5-(4-(1-methyl-1H-pyrrolo[2,3-b]pyridin-5-yl)-7H-pyrrolo[2,3-d]pyrimidin-2-ylamino)phenyl)acrylamide], the IC50 at wild-type EGFR kinase stood at 0.039 µM; in assay [1], 0.015 µM; in assay [2], 0.254 µM; with H1975 cells (Homo sapiens, NCI-H1975), 0.029 µM; with A431 cells (setting [4]), 1.12 µM; in the assay with NIH3T3 cells (Mus musculus, NIH3T3, 72 hours), 2.09 µM. Further, in assay [1], the “Selective inhibitory activity against targets at the cell level [IC50 (A431 cell)/IC50 (H1975 cell)]” value was found to be 17. Further, in the assay with H1975 cells, the “Selective inhibitory activity against cell growth [IC50 (A431 cell)/IC50 (H1975 cell)]” value came out at 38.7.
For `C=CC(=O)Nc1cc(Nc2nc(-c3cn(C)c4ccccc34)c3cc[nH]c3n2)c(OC)cc1N(C)CCN(C)C` [Compound 5, N-(2-((2-(dimethylamino)ethyl)(methyl)amino)-4-methoxy-5-(4-(1-methyl-1H-indol-3-yl)-7H-pyrrolo[2,3-d]pyrimidin-2-ylamino)phenyl)acrylamide], the IC50 at wild-type EGFR kinase was 0.015 µM; in assay [1], 0.016 µM; in assay [2] it was 0.119 µM; with H1975 cells (Homo sapiens, NCI-H1975) it was 0.009 µM; with A431 cells (setting [4]) it was 0.308 µM; with NIH3T3 cells (Mus musculus, NIH3T3, 72 hours), 2.63 µM. In addition, in assay [1], the “Selective inhibitory activity against targets at the cell level [IC50 (A431 cell)/IC50 (H1975 cell)]” value is recorded as 7.4. Besides, in the assay on H1975 cells, the “Selective inhibitory activity against cell growth [IC50 (A431 cell)/IC50 (H1975 cell)]” value was 34.2.
Turning to `C=CC(=O)Nc1cc(Nc2nc(-c3cccnc3)c3cc[nH]c3n2)c(OC)cc1N(C)CCN(C)C` [Compound 6, N-(2-((2-(dimethylamino)ethyl)(methyl)amino)-4-methoxy-5-(4-(pyridin-3-yl)-7H-pyrrolo[2,3-d]pyrimidin-2ylamino)phenyl)acrylamide], the IC50 at wild-type EGFR kinase amounted to 0.347 µM; in assay [1], 0.096 µM; in assay [2], 1.67 µM; with H1975 cells (Homo sapiens, NCI-H1975), 0.079 µM; in the assay with A431 cells (setting [4]), 1.8 µM; in the assay on NIH3T3 cells (Mus musculus, NIH3T3, 72 hours), 5.1 µM. The “Selective inhibitory activity against targets at the cell level [IC50 (A431 cell)/IC50 (H1975 cell)]” value in assay [1] came out at 17.4. For the same molecule, the “Selective inhibitory activity against cell growth [IC50 (A431 cell)/IC50 (H1975 cell)]” value with H1975 cells came out at 22.8.
As to `C=CC(=O)Nc1cc(Nc2nc(-c3ccccc3)c3cc[nH]c3n2)c(OC)cc1N(C)CCN(C)C` [Compound 7, N-(2-((2-(dimethylamino)ethyl)(methyl)amino)-4-methoxy-5-(4-phenyl-7H-pyrrolo[2,3-d]pyrimidin-2-ylamino)phenyl)acrylamide], the IC50 on wild-type EGFR kinase stood at 0.315 µM; in assay [1], 0.204 µM; in assay [2], 1.87 µM; with H1975 cells (Homo sapiens, NCI-H1975), 0.225 µM; in the assay on A431 cells (setting [4]), 1.69 µM; with NIH3T3 cells (Mus musculus, NIH3T3, 72 hours) it was 2.42 µM. Also, the “Selective inhibitory activity against targets at the cell level [IC50 (A431 cell)/IC50 (H1975 cell)]” value in assay [1] was determined as 9.2. For the same molecule, the “Selective inhibitory activity against cell growth [IC50 (A431 cell)/IC50 (H1975 cell)]” value with H1975 cells is recorded as 7.5.
As to `C=CC(=O)Nc1cc(Nc2nc(-c3cnn(C)c3)c3cc[nH]c3n2)c(OC)cc1N1CCC(N(C)C)CC1` [Compound 9, N-(2-(4-(dimethylamino)piperidin-1-yl)-4-methoxy-5-(4-(1-methyl-1H-pyrazol-4-yl)-7H-pyrrolo[2,3-D]pyrimidin-2-ylamino)phenyl)acrylamide], the IC50 is greater than 1 µM at wild-type EGFR kinase; 0.384 µM in assay [1]; greater than 10 µM in assay [2]; 0.3 µM in the assay on H1975 cells (Homo sapiens, NCI-H1975); 4.34 µM with A431 cells (setting [4]); greater than 10 µM in the assay with NIH3T3 cells (Mus musculus, NIH3T3, 72 hours). For the same molecule, the “Selective inhibitory activity against targets at the cell level [IC50 (A431 cell)/IC50 (H1975 cell)]” value in assay [1] is recorded as greater than 26. In the assay on H1975 cells, the “Selective inhibitory activity against cell growth [IC50 (A431 cell)/IC50 (H1975 cell)]” value came out at 14.5.
In the case of `C=CC(=O)Nc1cc(Nc2nc(-c3cnn(C)c3)c3cc[nH]c3n2)c(OC)cc1OCCN(C)C` [Compound 10, N-(2-(2-(dimethylamino)etboxy)-4-methoxy-5-(4-(1-methyl-1H-pyrazol-4-yl)-7H-pyrrolo[2,3-d]pyrimidin-2-ylamino)phenyl)acrylamide], the IC50 is 0.166 µM in assay [1]; 8.98 µM in assay [2]; 0.112 µM with H1975 cells (Homo sapiens, NCI-H1975); 3.8 µM with A431 cells (setting [4]); greater than 10 µM with NIH3T3 cells (Mus musculus, NIH3T3, 72 hours). Also, the “Selective inhibitory activity against targets at the cell level [IC50 (A431 cell)/IC50 (H1975 cell)]” value in assay [1] worked out at 54.1. For the same molecule, the “Selective inhibitory activity against cell growth [IC50 (A431 cell)/IC50 (H1975 cell)]” value in the assay with H1975 cells was found to be 34.
For the molecule `C=CC(=O)Nc1cc(Nc2nc(-c3cnn(C)c3)c3cc[nH]c3n2)c(OC)cc1N1CC(N(C)C)C1` [Compound 11, N-(2-(3-(dimethylamino)azetidin-1-yl)-4-methoxy-5-(4-(1-methyl-1H-pyrazol-4-yl)-7H-pyrrolo[2,3-d]pyrimidin-2-ylamino)phenyl)acrylamide Formate], on wild-type EGFR kinase, the IC50 was greater than 1 µM.
On the same count and under the same terms, then `C=CC(=O)Nc1cc(Nc2nc(-c3cnn(C)c3)c3cc[nH]c3n2)c(OC)cc1N1CCN(C)CC1` [Compound 12, N-(4-methoxy-5-(4-(1-methyl-1H-pyrazol-4-yl)-7H-pyrrolo[2,3-d]pyrimidin-2-ylamino)-2-(4-methylpiperazin-1-yl)phenyl)acrylamide], with greater than 1 µM.
For `C=CC(=O)Nc1cc(Nc2nc(-c3cnn(C)c3)c3c(Cl)c[nH]c3n2)c(OC)cc1N1CCC(N(C)C)CC1` [Compound 13, N-(5-(5-chloro-4-(1-methyl-1H-pyrazol-4-yl)-7H-pyrrolo[2,3-d]pyrimidin-2-ylamino)-2-(4(dimethylamino)piperidin-1-yl)-4-methoxyphenyl)acrylamide], the IC50 was 0.531 µM in the assay with H1975 cells (Homo sapiens, NCI-H1975); 3.04 µM in the assay with A431 cells (setting [4]); greater than 10 µM in the assay on NIH3T3 cells (Mus musculus, NIH3T3, 72 hours).
For the molecule `C#Cc1cccc(Nc2ncnc3cc(OCCOC)c(OCCOC)cc23)c1` [erlotinib], in assay [3], the “activity in the T790M mutant cell line H1975” value is “greater than 3 uM”.
As for `COc1cc2ncnc(Nc3ccc(F)c(Cl)c3)c2cc1OCCCN1CCOCC1` [gefitinib], in assay [3], the “activity in the T790M mutant cell line H1975” value is recorded as “greater than 3 uM”.
